Test results: patent US20070015739A1, “Use of non-antibacterial tetracycline formulations for inhibiting bacterial spores” (priority 2005, published 2007)
“Also recorded” adds a separate entry of the source. Read-outs that look alike come from different tables or passages of the source.

Experiments:
[1] = tested on: Bacillus cereus ATCC 10987 spores; type: cell-based
[2] = tested on: spores (Bacillus cereus ATCC 10987); type: cell-based
[3] = Plasma or serum concentration in humans; settings: dose of about 10 to about 20 mg/day
B. anthracis spores = settings: guinea pig, in vivo; cited from earlier work

Compound | rate of decrease in absorbance in the presence and absence of COL-3 [1] | inhibition of the early phase (initial stages) of germination ([1]; 37° C.) | early germination (Gram stain) [2] | minimum concentration to inhibit outgrowth [2] | outgrowth into vegetative cells [2] | development of spores into vegetative cells (Gram stain) ([2]; time=40 min) | development of spores into vegetative cells (Gram stain) ([2]; time=60 min) | plasma or serum concentrations [3] | death of infected animals during treatment (B. anthracis spores)
NC(=O)C1=C(O)C[C@@H]2C[C@@H]3Cc4cccc(O)c4C(=O)C3=C(O)[C@]2(O)C1=O [COL-3, 6-demethyl-6-deoxy-4-de(dimethylamino)tetracycline] | not significantly different | did not inhibit; also recorded: no effect | occurred in both the presence and absence of COL-3 | 1 μg per ml | inhibited | no further development | do not develop | about 1.0 μg/ml | –
CN(C)[C@@H]1C(O)=C(C(N)=O)C(=O)[C@@]2(O)C(O)=C3C(=O)c4c(O)cccc4[C@@](C)(O)[C@H]3C[C@@H]12 [tetracycline] | – | – | – | – | – | – | – | – | prevented death
